# Legend:
# DNA topoisomerase II = assay: Drug-stimulated topoisomerase II-mediated DNA cleavage assay (end-labeled PMC41 DNA); assay type: biochemical; settings: summary of biochemical studies
# Excerpt: FIGS. 5A and 5B are a photographic reproduction of the results of drug-stimulated topoisomerase II-mediated DNA cleavage assays performed on various compounds, including compounds of the present invention.
# DNA intercalation is a necessary but not a sufficient requirement for DNA topoisomerase II-mediated DNA cleavage. Accordingly, determination of drug-induced enzyme inhibition requires direct assay with isolated topoisomerase II. These assays involve determination of drug-enhanced topoisomerase II-mediated cleavage of PMC41 DNA appropriately end-labeled with [α-^32 P]dATP. As better seen in FIG. 5B, lane B, purified topoisomerase II, under the assay conditions, causes fragmentation of the DNA (background cleavage), as indicated by the radioautographic appearance of bands of cleaved DNA having differing mass values.
# [1] = tested on: murine L1210 leukemia cells; assay: Clonogenic assay with cultured murine L1210 leukemia cells, 1 h drug exposure (LD90); assay type: cell-based
# Description: Culture and bioassay conditions were as described in Cancer Chemotherapy Pharmacology 20:277 (1987) "Comparative Effects of Adriamycin and DNA-nonbinding Analogues on DNA, RNA, and Protein Synthesis in Vitro", Israel et al., except that cell counts were determined by hemocytometer rather than by automated cell counting.
# +Dose killing 90% of clonogens, 1hr. drug exposure.
# [2] = tested on: plasmid PC15 supercoiled DNA; assay: DNA unwinding assay (interference with DNA topoisomerase I-mediated unwinding; drug-DNA intercalation); assay type: biochemical
# Excerpt: DNA unwinding assays were used to measure the ability of a test drug to interfere with DNA topoisomerase I-mediated unwinding of plasmid PC15 supercoiled DNA. DNA topoisomerase I controls the topology of double-stranded DNA and is itself not inhibited by DNA intercalating agents. Rather, intercalating agents cause distortion of the torsional angle between adjacent DNA strand components and thereby interfere with the ability of topoisomerase I to convert supercoiled DNA into relaxed forms. Accordingly, this assay is taken as the definitive test of drug-DNA intercalation.
# Drugs were tested at 4 concentrations over a 125-fold concentration range. […] These compounds are 2-chloroethylurea derivatives of daunorubicin and adriamycin, respectively (i.e. not nitrosoureas, but chemical intermediates from which the nitrosoureas were derived).
# red blood cells = assay: Hematotoxicity study in non-tumor-bearing animals, red blood cell count; assay type: in vivo, mice; settings: 3 dose levels
# Excerpt: (§1) Clinically and in laboratory animals, anthracycline antibiotics and chloroethylnitrosourea alkylating agents currently used in medical oncology are known to be strongly myelosuppressive, with the effects of the alkylating agents on suppression of bone marrow activity being particularly profound and long-lasting.
# white blood cells = assay: Hematotoxicity study in non-tumor-bearing animals, white blood cell count; assay type: in vivo, mice
# Excerpt: FIG. 3 is a graphic representation of white blood cell counts in mice following a single dose of 2-chloroethylnitrosoureidodaunorubicin.
# as §1
structure (smiles),measurement,setting,value
"COc1cccc2c1C(=O)c1c(O)c3c(c(O)c1C2=O)C[C@@](O)(C(C)=O)C[C@@H]3O[C@H]1C[C@H](NC(=O)N(CCCl)N=O)[C@H](O)[C@H](C)O1 [AD 312, 2-chloroethylnitrosoureidodaunorubicin]",DNA topoisomerase II-inhibitory and alkylating activity,DNA topoisomerase II,clearly establish the DNA topoisomerase II-inhibitory activity and alkylating activity
same,clonogenic cell kill,"[1]; L1210, 1 hour exposure",most potent of the six agents compared
same,IC90,"[1]; Mus musculus, L1210, 1 hr drug exposure, read-out: L1210 LD90 (dose killing 90% of clonogens)",260 nM
same,relative strength of drug-DNA intercalation (arbitrary scale),"[2]; 0 = no intercalation, 9 = very strong intercalation",5
same,interference with topoisomerase I-mediated conversion of supercoiled DNA / intercalation,"[2]; 4 concentrations, 125-fold range","the ability of these compounds to intercalate, a prerequisite for topoisomerase II inhibition, is clearly established"
same,change in red blood cell counts,red blood cells,No significant change in red blood cells counts
same,acute toxicity,white blood cells; dose 60.75 mg/kg,still not at an acute toxic level
same,recovery of white blood cell count,white blood cells; dose 60.75 mg/kg,rapid recovery again being achieved
same,reduction in white blood cell count,"white blood cells; dose 60.75 mg/kg, day 4",about 67%
same,day of white blood cell nadir,white blood cells; single dose 40.5 mg/kg,4 days
same,full recovery of white blood cell count,white blood cells; single dose 40.5 mg/kg,≤ 10 days
same,lowering of white blood cell count,white blood cells; single dose 40.5 mg/kg,only a modest lowering of the white blood cell count
same,white blood cell count nadir,"white blood cells; single dose 40.5 mg/kg, day 4, median 9×10^6 before drug",6×10^6 cells/ml

# Source: patent publication US4973675A, “Hybrid nitrosoureidoanthracyclines having antitumor activity” (University of Tennessee Research Center, priority 1989, dated 1990)
